Results from PubChem BioAssay (NCI).
“And” between values parts separate entries of the source, which are not always exact repeats. Equal entries are not always repeated.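 How tested: cells in 96-well plates exposed to compound for 48 hours at five concentrations. GI50 = concentration required for 50% inhibition of growth. TGI marks complete inhibition of growth.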

Assays:
Assay in all cases: NCI tumour cell line growth inhibition, 48 h
[1] = system: NCI-H23 lung
[2] = system: SNB-78 CNS
[3] = system: UO-31 renal
[4] = system: T-47D breast
[5] = system: SF-268 CNS
[6] = system: HCT-15 colon
[7] = system: MDA-MB-435
[8] = system: MALME-3M melanoma
[9] = system: SK-MEL-28 melanoma
[10] = system: NCI-H226 lung
[11] = system: SNB-75 CNS
[12] = system: KM20L2 colon
[13] = system: KM12 colon
[14] = system: OVCAR-3 ovarian
[15] = system: DMS 114 small cell lung
[16] = system: IGROV1 ovarian
[17] = system: A498 renal
[18] = system: UACC-257 melanoma
[19] = system: HOP-62 NSCLC
[20] = system: MDA-MB-231 breast
[21] = system: TK-10 renal
[22] = system: SNB-19 CNS
[23] = system: SK-MEL-2 melanoma
[24] = system: ACHN renal
[25] = system: EKVX NSCLC
[26] = system: NCI-H522 lung
[27] = system: M19-MEL melanoma
[28] = system: P388 leukemia
[29] = system: HL-60(TB) leukemia
[30] = system: OVCAR-8 ovarian
[31] = system: PC-3 prostate
[32] = system: K-562 leukemia
[33] = system: U251 CNS
[34] = system: CAKI-1 renal
[35] = system: SF-295 CNS
[36] = system: A549 NSCLC
[37] = system: OVCAR-5 ovarian
[38] = system: DU-145 prostate
[39] = system: RXF-631 renal
[40] = system: RPMI-8226 leukemia
[41] = system: HCC-2998 colon
[42] = system: P388/ADR leukemia
[43] = system: DMS 273 small cell lung
[44] = system: MCF7 breast
[45] = system: CCRF-CEM leukemia
[46] = system: HS 578T breast
[47] = system: SF-539 CNS
[48] = system: LXFL 529 NSCLC
[49] = system: HOP-92 NSCLC
[50] = system: HOP-18 NSCLC
[51] = system: UACC-62 melanoma
[52] = system: HT29 colon
[53] = system: SK-OV-3 ovarian
[54] = system: RXF 393 renal
[55] = system: SN12K1 renal
[56] = system: COLO 205 colon
[57] = system: BT-549 breast
[58] = system: LOX IMVI melanoma
[59] = system: DLD-1 colon
[60] = system: SK-MEL-5 melanoma
[61] = system: NCI/ADR-RES ovarian
[62] = system: MOLT-4 leukemia
[63] = system: XF 498 CNS
[64] = system: NCI-H460 lung
[65] = system: SR leukemia
[66] = system: 786-0 renal
[67] = system: MDA-N
[68] = system: HCT-116 colon
[69] = system: OVCAR-4 ovarian
[70] = system: SN12C renal
[71] = system: SW-620 colon
[72] = system: M14 melanoma

C/C(=N\N=C(\[Se])N(C)C)c1ccccn1
TGI [1]: 11 µM | TGI [2]: 15.9 µM | TGI [3]: 13.9 µM | TGI [4]: 32.3 µM | TGI [5]: 25.6 µM | TGI [6]: 15.9 µM | TGI [7]: 16.6 µM | TGI [8]: 9.35 µM | TGI [9]: 18.9 µM | TGI [10]: 5.27 µM | TGI [11]: 15.5 µM | TGI [12]: 12.6 µM | TGI [13]: 17.9 µM | TGI [14]: 11.8 µM | TGI [15]: < 0.01 µM | TGI [16]: 10.1 µM | TGI [17]: 9.94 µM | TGI [18]: 0.162 µM | TGI [19]: 1.33 µM | TGI [20]: 30.7 µM | TGI [21]: 18.1 µM | TGI [22]: 15.9 µM | TGI [23]: 12.9 µM | TGI [24]: 13.2 µM | TGI [25]: 11.6 µM | TGI [26]: 0.975 µM | TGI [27]: 5.02 µM | TGI [28]: < 0.01 µM | TGI [29]: 0.343 µM | TGI [30]: 6.46 µM | TGI [31]: 13.9 µM | TGI [32]: 23.6 µM | TGI [33]: 8.65 µM | TGI [34]: 16.1 µM | TGI [35]: 12 µM | TGI [36]: 13.5 µM | TGI [37]: 7.31 µM | TGI [38]: 18 µM | TGI [39]: 74.1 µM | TGI [40]: 53.2 µM | TGI [41]: 13.9 µM | TGI [42]: < 0.01 µM | TGI [43]: 5.29 µM | TGI [44]: 8.15 µM | TGI [45]: 2.1 µM | TGI [46]: 40.6 µM | TGI [47]: 9.03 µM | TGI [48]: 13.8 µM | TGI [49]: 13.1 µM | TGI [50]: 12.1 µM | TGI [51]: 2.4 µM | TGI [52]: 14.2 µM | TGI [53]: 10.2 µM | TGI [54]: 6.23 µM | TGI [55]: 13.9 µM | TGI [56]: 2.05 µM | TGI [57]: 21.4 µM | TGI [58]: 12.8 µM | TGI [59]: 16.9 µM | TGI [60]: 1.75 µM | TGI [61]: 1.67 µM | TGI [62]: 7.8 µM | TGI [63]: 20.6 µM | TGI [64]: 4.17 µM | TGI [65]: 23.7 µM | TGI [66]: 18.3 µM | TGI [67]: 26.3 µM | TGI [68]: 14.2 µM | TGI [69]: 13.9 µM | TGI [70]: 14.9 µM | TGI [71]: 15.2 µM | TGI [72]: 3.24 µM

O=S1(=O)CS(=O)(=O)OCCO1
TGI [1]: > 81.5 µM and 113 µM | TGI [2]: 140 µM | TGI [3]: 134 µM | GI50 [4]: 87.6 µM | TGI [4]: 557 µM | GI50 [5]: 85.6 µM | TGI [5]: 249 µM | GI50 [6]: > 85.6 µM | TGI [6]: 128 µM | GI50 [7]: 72.9 µM | TGI [7]: 94.4 µM | TGI [8]: 214 µM | GI50 [9]: > 93.9 µM | TGI [9]: 300 µM | GI50 [10]: > 93.7 µM | TGI [10]: 172 µM | GI50 [11]: 56.9 µM | TGI [11]: 57.2 µM | TGI [12]: 331 µM | TGI [13]: 121 µM | TGI [14]: 87.5 µM | TGI [15]: 108 µM | GI50 [16]: > 69.7 µM | TGI [16]: 144 µM | TGI [17]: 154 µM | GI50 [18]: > 63.8 µM | TGI [18]: 153 µM | GI50 [19]: > 85.2 µM | TGI [19]: 50.9 µM | TGI [20]: 352 µM | TGI [21]: 363 µM | TGI [22]: 324 µM | TGI [23]: 119 µM | GI50 [24]: 36.3 µM | TGI [24]: 56.5 µM | TGI [25]: 273 µM | GI50 [26]: > 96.4 µM | TGI [26]: 140 µM | TGI [27]: 126 µM | TGI [28]: 119 µM | GI50 [29]: 23.9 µM | TGI [29]: 93.1 µM and 61.8 µM | GI50 [30]: > 77.7 µM | TGI [30]: 235 µM | TGI [31]: 665 µM | TGI [32]: 423 µM | GI50 [33]: 18.2 µM | TGI [33]: 96.3 µM | GI50 [34]: 33.2 µM | TGI [34]: > 92.9 µM and 143 µM | GI50 [35]: 43.1 µM | TGI [35]: 121 µM | GI50 [36]: > 82.6 µM | TGI [36]: 186 µM | TGI [37]: 269 µM | TGI [38]: 178 µM | TGI [40]: 599 µM | GI50 [41]: 68.1 µM | TGI [41]: 106 µM | TGI [42]: 91.8 µM | TGI [43]: 215 µM | GI50 [44]: 39.1 µM | TGI [44]: 348 µM | TGI [45]: 252 µM | TGI [46]: 176 µM | GI50 [47]: 30.4 µM | TGI [47]: > 78.2 µM and 63.5 µM | GI50 [49]: > 49.7 µM | TGI [49]: 112 µM | TGI [50]: 436 µM | GI50 [51]: 12 µM | TGI [51]: > 78.7 µM and 20.9 µM | TGI [52]: 347 µM | TGI [53]: 70.5 µM | GI50 [54]: > 94.8 µM | TGI [54]: 118 µM | TGI [55]: 92.4 µM | TGI [56]: 157 µM | GI50 [57]: 69.2 µM | TGI [57]: 156 µM | GI50 [58]: 29.7 µM | TGI [58]: 71.3 µM | TGI [59]: 164 µM | GI50 [60]: > 56.6 µM | TGI [60]: 87.7 µM | GI50 [61]: 25.7 µM | TGI [61]: 89.6 µM and 270 µM | GI50 [62]: 18.4 µM | TGI [62]: 100 µM | TGI [63]: 47.1 µM | GI50 [64]: 18.1 µM | TGI [64]: 69.9 µM | GI50 [65]: 1.15 µM | GI50 [66]: 35.6 µM | TGI [66]: 159 µM | TGI [67]: 80.3 µM | GI50 [68]: > 74.6 µM | TGI [68]: 85.3 µM | TGI [69]: 130 µM | TGI [70]: 335 µM | TGI [71]: 321 µM | GI50 [72]: > 78.5 µM | TGI [72]: 162 µM
